Laboratory results: patent publication US20240034731A1, “AZA-QUINAZOLINE COMPOUNDS AND METHODS OF USE” (Iambic Therapeutics, Inc., priority 2022, published 2024)
pIC50: −log10 of the molar value.

Assays:
[1] = target: CDK1/Cyclin B1 (Homo sapiens (Human), UniProt P06493); experiment: CDK1/Cyclin B1 ADP-Glo Kinase Assay; assay type: biochemical; conditions: ADP-Glo, 80 uM ATP; read-out: CDK1 Cyclin B1 IC50
Summary of the method: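 ADP-Glo luminescent readout of ADP production, with IC50 fitted by a four-parameter equation to fractional velocity against inhibitor concentration. Reaction started with ATP-containing substrate after a 30-minute enzyme–inhibitor pre-incubation and stopped after 90 minutes, both at room temperature.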

[2] = test system: OVCAR-3 cells; experiment: Cell Growth Inhibition, OVCAR-3 (CellTiterGlo, 6 days); assay type: cell-based; conditions: Homo sapiens, 144 h, OVCAR-3, 6-day treatment
Summary of the method: (§1)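 IC50 from four-parameter, variable-slope fits of % growth inhibition, derived from CellTiterGlo 2.0 luminescence relative to control. Compounds, usually 10-10,000 nM in half-log steps, stayed 6 days at 37 °C, 5% CO2 with 500 MCF-7 or OVCAR-3 cells/well in 10% FBS RPMI.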

[3] = target: CDK6/Cyclin D3 (Homo sapiens (Human), UniProt Q00534); experiment: CDK6/Cyclin D3 ADP-Glo Kinase Assay; assay type: biochemical; conditions: 100 uM ATP, read-out: CDK6/ CyclinD3 IC50
Summary of the method: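 ADP-Glo luminescence measured ADP produced by CDK6/Cyclin D3 in a 90-min room-temperature reaction started with ATP-containing substrate, after 30-min enzyme–inhibitor pre-incubation. Fractional velocity was plotted against inhibitor concentration and fitted to a four-parameter IC50 model.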

[4] = test system: MCF-7 cells; experiment: Cell Growth Inhibition, MCF-7 (CellTiterGlo, 6 days); assay type: cell-based; conditions: Homo sapiens, MCF7, 144 h, MCF-7, 6-day treatment
Summary of the method: as §1

[5] = target: CDK2/Cyclin E1 (Homo sapiens (Human), UniProt P24941); experiment: CDK2/Cyclin E1 Full length ADP-Glo Kinase Assay; assay type: biochemical; conditions: 20 uM ATP, read-out: CDK2/ CyclinE1 IC50
Summary of the method: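 ADP-Glo luminescence (ATP depletion, then ADP-to-light conversion) quantified kinase turnover after a 90 min room-temperature reaction started by ATP/substrate, following 30 min enzyme–inhibitor preincubation. Enzyme: full-length CDK2/cyclin E1; IC50 fitted with a four-parameter equation on fractional velocity.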

[6] = target: CDK4/Cyclin D1 (Homo sapiens (Human), UniProt P11802); experiment: CDK4/Cyclin D1 CHEF Assay (AQT0258 peptide); assay type: biochemical; conditions: 200 uM ATP, read-out: CDK4/ CyclinD1 AQT IC50
Summary of the method: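 Sox-labelled peptide AQT0258 phosphorylation read as chelation-enhanced fluorescence (ex 360/em 485 nm) with Mg(II). Enzyme preincubated with inhibitor 30 min at 22°C, substrate added, 3 h at 22°C; IC50 from four-parameter fit of fractional velocity versus inhibitor concentration.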

Sequence of CDK1/Cyclin B1 (P06493 whole entry): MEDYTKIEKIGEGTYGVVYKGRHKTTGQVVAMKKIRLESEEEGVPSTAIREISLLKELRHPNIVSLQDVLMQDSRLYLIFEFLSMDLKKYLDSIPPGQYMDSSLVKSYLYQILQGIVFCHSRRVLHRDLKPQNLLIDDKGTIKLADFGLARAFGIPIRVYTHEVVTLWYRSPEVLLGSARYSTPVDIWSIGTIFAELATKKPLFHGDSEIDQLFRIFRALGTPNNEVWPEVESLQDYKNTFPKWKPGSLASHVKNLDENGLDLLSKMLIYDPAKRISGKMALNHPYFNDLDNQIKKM
Sequence of CDK1/Cyclin B1 (P14635 whole entry partner): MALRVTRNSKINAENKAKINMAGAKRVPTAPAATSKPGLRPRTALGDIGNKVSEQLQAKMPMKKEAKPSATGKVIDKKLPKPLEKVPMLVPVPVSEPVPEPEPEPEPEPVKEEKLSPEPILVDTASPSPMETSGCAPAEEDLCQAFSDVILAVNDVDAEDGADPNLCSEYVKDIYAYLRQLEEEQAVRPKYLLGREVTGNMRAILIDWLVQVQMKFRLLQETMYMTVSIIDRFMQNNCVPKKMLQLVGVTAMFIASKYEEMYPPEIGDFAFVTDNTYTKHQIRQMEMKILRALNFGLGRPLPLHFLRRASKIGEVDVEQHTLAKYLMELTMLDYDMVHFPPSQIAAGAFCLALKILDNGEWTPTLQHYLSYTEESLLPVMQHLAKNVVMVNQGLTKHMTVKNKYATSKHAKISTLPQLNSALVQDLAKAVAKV
Sequence of CDK6/Cyclin D3 (Q00534 whole entry): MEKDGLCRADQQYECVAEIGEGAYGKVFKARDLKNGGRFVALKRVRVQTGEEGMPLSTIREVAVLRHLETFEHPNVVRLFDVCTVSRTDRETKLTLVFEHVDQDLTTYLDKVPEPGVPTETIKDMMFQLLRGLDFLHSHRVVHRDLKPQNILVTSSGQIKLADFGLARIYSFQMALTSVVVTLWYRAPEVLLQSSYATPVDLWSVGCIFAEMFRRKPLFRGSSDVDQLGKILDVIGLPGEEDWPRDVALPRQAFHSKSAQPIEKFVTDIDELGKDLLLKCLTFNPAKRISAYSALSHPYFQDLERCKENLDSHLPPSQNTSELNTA
Sequence of CDK6/Cyclin D3 (P30281 whole entry partner): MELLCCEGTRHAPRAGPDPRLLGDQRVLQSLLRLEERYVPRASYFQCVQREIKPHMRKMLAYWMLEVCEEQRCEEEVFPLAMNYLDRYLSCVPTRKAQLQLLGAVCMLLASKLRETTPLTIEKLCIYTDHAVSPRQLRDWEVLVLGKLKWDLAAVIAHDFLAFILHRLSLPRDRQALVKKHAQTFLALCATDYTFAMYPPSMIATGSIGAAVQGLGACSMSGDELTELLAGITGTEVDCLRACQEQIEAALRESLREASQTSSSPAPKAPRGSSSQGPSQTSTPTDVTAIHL
Sequence of CDK4/Cyclin D1 (P11802 whole entry): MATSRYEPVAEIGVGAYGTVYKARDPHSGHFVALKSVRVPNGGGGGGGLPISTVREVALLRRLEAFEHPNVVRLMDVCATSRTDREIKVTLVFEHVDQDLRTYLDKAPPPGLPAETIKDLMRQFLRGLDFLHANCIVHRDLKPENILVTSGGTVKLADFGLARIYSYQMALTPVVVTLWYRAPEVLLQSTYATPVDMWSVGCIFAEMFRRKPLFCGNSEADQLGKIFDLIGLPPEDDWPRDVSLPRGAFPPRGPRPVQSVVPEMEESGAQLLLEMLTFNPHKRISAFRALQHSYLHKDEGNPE
Sequence of CDK4/Cyclin D1 (P24385 whole entry partner): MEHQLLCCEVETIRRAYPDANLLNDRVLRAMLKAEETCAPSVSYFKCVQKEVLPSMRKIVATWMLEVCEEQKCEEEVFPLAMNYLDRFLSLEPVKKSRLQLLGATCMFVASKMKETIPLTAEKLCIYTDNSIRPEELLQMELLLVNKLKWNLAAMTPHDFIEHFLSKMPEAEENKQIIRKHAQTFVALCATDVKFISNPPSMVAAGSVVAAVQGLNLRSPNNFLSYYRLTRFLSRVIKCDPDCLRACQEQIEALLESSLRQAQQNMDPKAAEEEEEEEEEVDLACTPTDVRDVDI

pIC50 [1] | pIC50 [2] | pIC50 [3] | pIC50 [4] | pIC50 [5] | pIC50 [6] | Compound
> 6.70 | < 5.70 | > 6.70 | < 5.70 | > 6.70 | > 6.70 | Cc1cc2cnc(NC3CCN(S(C)(=O)=O)CC3)nc2c(N2CCC3(C2)CC3(F)F)n1 (stereo not drawn) [Compound 41, 8-(1,1-difluoro-5-azaspiro[2.4]heptan-5-yl)-6-methyl-N-(1-(methylsulfonyl)piperidin-4-yl)pyrido[3,4-d]pyrimidin-2-amine]
< 5.70 | 5.70 to 6.30 | 6.30 to 6.70 | 5.70 to 6.30 | 5.70 to 6.30 | > 6.70 | Cc1cc2cnc(NC3CC4CC3CN4C)nc2c(N2CCC3(C2)CC3(F)F)n1 (stereo not drawn) [Compound 43, 8-(1,1-difluoro-5-azaspiro[2.4]heptan-5-yl)-6-methyl-N-(2-methyl-2-azabicyclo[2.2.1]heptan-5-yl)pyrido[3,4-d]pyrimidin-2-amine]
< 5.70 | < 5.70 | 5.70 to 6.30 | < 5.70 | < 5.70 | 6.30 to 6.70 | Cc1cc2cnc(Nc3ccc4c(c3)CN(C)C4)nc2c(N2CC3(C2)CN(C2CC2)C3)n1 [Compound 44, 8-(6-cyclopropyl-2,6-diazaspiro[3.3]heptan-2-yl)-6-methyl-N-(2-methylisoindolin-5-yl)pyrido[3,4-d]pyrimidin-2-amine]
9.00 | < 5.70 | 5.70 to 6.30 | < 5.70 | < 5.70 | > 6.70 | Cc1cc2cnc(N[C@H]3CC[C@@H](CN(C)C)CC3)nc2c(N2CCC3(C2)CC3(F)F)n1 (stereo partly drawn) [Compound 45, 8-(1,1-difluoro-5-azaspiro[2.4]heptan-5-yl)-N-((1s,4s)-4-((dimethylamino)methyl)cyclohexyl)-6-methylpyrido[3,4-d]pyrimidin-2-amine]
5.70 to 6.30 | 5.70 to 6.30 | > 6.70 | 5.70 to 6.30 | > 6.70 | > 6.70 | Cc1cc2cnc(Nc3ccc4c(c3)CN(C3CC3)C4)nc2c(N2CC3(CCNC3)C2)n1 [Compound 47, N-(2-cyclopropylisoindolin-5-yl)-6-methyl-8-(2,6-diazaspiro[3.4]octan-2-yl)pyrido[3,4-d]pyrimidin-2-amine]
5.70 to 6.30 | < 5.70 | 6.30 to 6.70 | < 5.70 | > 6.70 | > 6.70 | Cc1cc2cnc(NC3CCN(S(=O)(=O)C4CC4)CC3)nc2c(N2CC3(C2)CN(C2CC2)C3)n1 [Compound 48, 8-(6-cyclopropyl-2,6-diazaspiro[3.3]heptan-2-yl)-N-(1-(cyclopropylsulfonyl)piperidin-4-yl)-6-methylpyrido[3,4-d]pyrimidin-2-amine]
5.70 to 6.30 | 5.70 to 6.30 | 6.30 to 6.70 | 5.70 to 6.30 | > 6.70 | > 6.70 | Cc1cc2cnc(NC3CCN(S(=O)(=O)C4CC4)CC3)nc2c(N2CC3(CCN(C)C3)C2)n1 [Compound 49, N-(1-(cyclopropylsulfonyl)piperidin-4-yl)-6-methyl-8-(6-methyl-2,6-diazaspiro[3.4]octan-2-yl)pyrido[3,4-d]pyrimidin-2-amine]
5.70 to 6.30 | 5.70 to 6.30 | > 6.70 | 5.70 to 6.30 | > 6.70 | > 6.70 | FC(F)c1cc2cnc(Nc3ccc4c(c3)CN(C3CC3)C4)nc2c(N2CC3(CCNC3)C2)n1 [Compound 50, N-(2-cyclopropylisoindolin-5-yl)-6-(difluoromethyl)-8-(2,6-diazaspiro[3.4]octan-2-yl)pyrido[3,4-d]pyrimidin-2-amine]
> 6.70 | 5.70 to 6.30 | > 6.70 | < 5.70 | > 6.70 | > 6.70 | Cc1cc2cnc(NC3CCN(S(C)(=O)=O)CC3)nc2c(N2CCC3(CCC3(F)F)C2)n1 (stereo not drawn) [Compound 52, 8-(1,1-difluoro-6-azaspiro[3.4]octan-6-yl)-6-methyl-N-(1-(methylsulfonyl)piperidin-4-yl)pyrido[3,4-d]pyrimidin-2-amine]
< 5.70 | < 5.70 | > 6.70 | < 5.70 | > 6.70 | > 6.70 | Cc1cc2cnc(NC3CCN(S(C)(=O)=O)CC3)nc2c(N2CCC3(C2)CC(F)(F)C3)n1 [Compound 53, 8-(2,2-difluoro-6-azaspiro[3.4]octan-6-yl)-6-methyl-N-(1-(methylsulfonyl)piperidin-4-yl)pyrido[3,4-d]pyrimidin-2-amine]
> 6.70 | 5.70 to 6.30 | > 6.70 | < 5.70 | > 6.70 | > 6.70 | Cc1cc2cnc(NC3CCN(S(C)(=O)=O)CC3)nc2c(N2CCC3(CC3)C2)n1 [Compound 54, 6-methyl-N-(1-(methylsulfonyl)piperidin-4-yl)-8-(5-azaspiro[2.4]heptan-5-yl)pyrido[3,4-d]pyrimidin-2-amine]
> 6.70 | 5.70 to 6.30 | > 6.70 | 6.30 to 6.70 | > 6.70 | > 6.70 | O=S(=O)(CC1CCC1)N1CCC(Nc2ncc3cc(C(F)F)nc(N4CC5(CCNC5)C4)c3n2)CC1 [Compound 55, N-(1-((cyclobutylmethyl)sulfonyl)piperidin-4-yl)-6-(difluoromethyl)-8-(2,6-diazaspiro[3.4]octan-2-yl)pyrido[3,4-d]pyrimidin-2-amine]
> 6.70 | 5.70 to 6.30 | > 6.70 | 5.70 to 6.30 | > 6.70 | > 6.70 | Cc1cc2cnc(NC3CCN(S(=O)(=O)C4CC4)CC3)nc2c(N2CC(O)(C3CC3)C2)n1 [Compound 56, 3-cyclopropyl-1-(2-((1-(cyclopropylsulfonyl)piperidin-4-yl)amino)-6-methylpyrido[3,4-d]pyrimidin-8-yl)azetidin-3-ol]
6.30 to 6.70 | < 5.70 | > 6.70 | < 5.70 | > 6.70 | > 6.70 | Cc1cc2cnc(NC3CCN(S(=O)(=O)C4CC4)CC3)nc2c(N2CC(OC3CC3)C2)n1 [Compound 57, 8-(3-cyclopropoxyazetidin-1-yl)-N-(1-(cyclopropylsulfonyl)piperidin-4-yl)-6-methylpyrido[3,4-d]pyrimidin-2-amine]
> 6.70 | 5.70 to 6.30 | > 6.70 | 5.70 to 6.30 | > 6.70 | > 6.70 | Cc1cc2cnc(NC3CCN(S(=O)(=O)C4CC4)CC3)nc2c(N2CCC(OC(F)F)C2)n1 (stereo not drawn) [Compound 58, N-(1-(cyclopropylsulfonyl)piperidin-4-yl)-8-(3-(difluoromethoxy)pyrrolidin-1-yl)-6-methylpyrido[3,4-d]pyrimidin-2-amine]
5.70 to 6.30 | 5.70 to 6.30 | > 6.70 | 5.70 to 6.30 | > 6.70 | > 6.70 | Cc1cc2cnc(NC3CCN(S(=O)(=O)C4(C)CC4)CC3)nc2c(N2CCC3(CN(C)C3)C2)n1 [Compound 59, 6-methyl-8-(2-methyl-2,6-diazaspiro[3.4]octan-6-yl)-N-(1-((1-methylcyclopropyl)sulfonyl)piperidin-4-yl)pyrido[3,4-d]pyrimidin-2-amine]
> 6.70 | 5.70 to 6.30 | > 6.70 | 5.70 to 6.30 | > 6.70 | > 6.70 | Cc1cc2cnc(NC3CCN(S(=O)(=O)C4CC4)CC3)nc2c(N2CC3(CCNCC3(F)F)C2)n1 [Compound 61, N-(1-(cyclopropylsulfonyl)piperidin-4-yl)-8-(5,5-difluoro-2,7-diazaspiro[3.5]nonan-2-yl)-6-methylpyrido[3,4-d]pyrimidin-2-amine]
< 5.70 | < 5.70 | < 5.70 | < 5.70 | 6.30 to 6.70 | 5.70 to 6.30 | Cc1cc2cnc(NC3CCN(S(=O)(=O)C4(C)CC4)CC3)nc2c(C2CC(C)(O)C2)n1 (stereo not drawn) [Compound 63, 1-methyl-3-(6-methyl-2-((1-((1-methylcyclopropyl)sulfonyl)piperidin-4-yl)amino)pyrido[3,4-d]pyrimidin-8-yl)cyclobutan-1-ol]
5.70 to 6.30 | < 5.70 | 6.30 to 6.70 | < 5.70 | > 6.70 | > 6.70 | COCCN1CC2(C1)CN(c1nc(C3CC3)cc3cnc(NC4CCN(S(=O)(=O)CC5CCC5)CC4)nc13)C2 [Compound 64, N-(1-((cyclobutylmethyl)sulfonyl)piperidin-4-yl)-6-cyclopropyl-8-(6-(2-methoxyethyl)-2,6-diazaspiro[3.3]heptan-2-yl)pyrido[3,4-d]pyrimidin-2-amine]
